Measurements taken from patent US20080044390A1, “Methods and compositions for the treatment of neurodegenerative disorders” (priority 2006, published 2008).
Counter-ions that a name gives are not always drawn. Like-named read-outs stand apart in the source and are kept apart here.

Tested on: PC12/HttN90Q103 cells
Assay: CellTiter-Blue assay, rescue of HttN90Q103-induced cell death
Format: cell-based, rat
Description: In this stable PC12 line (PC12/HttN90Q103), transcription of the Htt transgene is driven by an ecdysone-regulated promoter such that the expression of HttN90Q103 can be turned on or off by the addition or removal of the non-steroidal ecdysone analog tebufenozide (teb).
Using the engineered PC12/HttN90Q103 cell line together with Perkin Elmer's ATPlite™ assay kit or CellTiter-Blue™ assay, a high throughput assay to screen small molecules for their ability to prevent mutant Htt exon 1-induced cell death was developed and optimized.
The following formulas were used to calculate mutant Htt-induced cytotoxicity and test compound rescue: % killing=[(un-induced−induced-DMSO treated)/un-induced]×100 % rescue=[(drug treated−induced-DMSO treated)/(un-induced−induced-DMSO treated)]×100
For single-agent ranking, the assay was performed in 384-well plates to obtain duplicate dose response curves in 12-step dilutions with a dosing ratio f=2 over 3 orders of magnitude.
The uncertainty of each fitted parameter was estimated from the range over which the change in reduced chi-squared was less than one, or less than minimum reduced chi-squared if that minimum exceeded one, to allow for underestimated σI errors.
Day 1—Add Compounds 4 hours post-induction • 1) Remove compound plates from dessicator. • 2) Using the PlateMate, prepare dilution plate with 100 μL per well of the complete cell medium at room temperature in clear untreated 384-well plates. • 3) Using the MiniTrak, make compound dilution plates: 1 μL from each well of stock plates into 100 μL of media in the dilution plate for a 1:100 dilution (10× stock in media). • 4) Using the MiniTrak, add 4.5 μL of the diluted stock to each well of cells in assay plates. • 5) Make positive control solution: dilute 20 mM stock of BOC-D-FMK in media for a 10× stock. • 6) Manually add 4.5 μL positive control to C1-N1. • 7) Incubate plates at 37° C. for three days. • (for ranking combinations, steps 5 and 6 are omitted as there is positive control on the compound plates)
Day 4—CellTiter-Blue™ assay • 1) Make solution of 5% CellTiter-Blue™ in Q103 media. • 2) Using the Multidrop, add 40 μL of 5% CellTiter-Blue™ solution to each well of the assay plates. • 3) Incubate plates with CellTiter-Blue™ at 37° C.

[1] = CellTiter-Blue, single agent, 250 nM tebufenozide induction
[2] = CellTiter-Blue, single agent, sigmoidal fit of 12-step dose response, read-out: EC50
[3] = Rattus norvegicus, PC-12, CellTiter-Blue, single agent, 250 nM tebufenozide induction, read-out: Max Effect (% rescue)
[4] = Rattus norvegicus, PC-12, CellTiter-Blue, single agent, sigmoidal fit of 12-step dose response, read-out: EC50

Question: What does the source list for `C=C[C@@]1(C)CC(=O)[C@]2(O)[C@@]3(C)[C@@H](O)CCC(C)(C)[C@@H]3[C@H](OC(=O)CCN(C)C)[C@H](OC(C)=O)[C@@]2(C)O1` [NKH-477, 6-(3-dimethylaminopropionyl)forskolin]?
Answer: Max Effect (% rescue) [1]: 69%; EC50 [2]: 7.2 µM

Question: With `O=c1cc(-c2ccccc2)oc2cc(O)cc(O)c12` [Chrysin] as the compound, how does the Emax [3] read?
Answer: 14%

Question: And the EC50 [4]?
Answer: 1.1 µM

Question: What does the source list for `C=C1/C(=C\C=C2/CCC[C@]3(C)[C@@H]([C@H](C)CCCC(C)(C)O)CC[C@@H]23)C[C@@H](O)C[C@@H]1O` [Calcitriol]?
Answer: EC50 (Rattus norvegicus, PC-12): 0.01 µM; Emax (Rattus norvegicus, PC-12, read-out: Max Effect (% rescue)): 33%

Question: `c1ccc2c(c1)[I+]c1ccccc1-2` [Diphenyleneiodonium] was tested. Which Emax [3] did it give?
Answer: 26%

Question: What about the EC50 [4] of the same compound?
Answer: 0.1 µM

Question: For `C[C@]12C=CC(=O)C=C1CC[C@@H]1[C@@H]2CC[C@]2(C)OC(=O)CC[C@@H]12` [Testolactone], which Emax [3] is on record?
Answer: 52%

Question: What about the EC50 [4] of the same compound?
Answer: 7.6 µM

Question: Which results are given for `O=C1NCCC1=Cc1ccc2c(c1)OCO2` [Heat shock protein inhibitor I (KNK-437), 3,4-methylenedioxy-benzylidine-γ-butyrolactam]?
Answer: Max Effect (% rescue) [1]: 20%; EC50 [2]: 8.2 µM

Question: Which Emax [3] does the source give for `C=C1C[C@@H]2[C@H](CC[C@]3(C)C(=O)CC[C@@H]23)[C@@]2(C)C=CC(=O)C=C12` [Exemestane] here?
Answer: 16%

Question: What about the EC50 [4] of the same compound?
Answer: 1.5 µM

Question: How did the “Max Effect (% rescue)” value [1] turn out when `CC(=O)[C@H]1CC[C@H]2[C@@H]3CC=C4C[C@@H](O)CC[C@]4(C)[C@H]3CC[C@]12C` [Pregnenolone, 5-pregnen-3β-ol-20-one] was run?
Answer: 22%

Question: And the EC50 [2]?
Answer: 11.9 µM

Question: With `C=CC[C@@H]1/C=C(\C)C[C@H](C)C[C@H](OC)[C@H]2O[C@@](O)(C(=O)C(=O)N3CCCC[C@H]3C(=O)O[C@H](/C(C)=C/[C@@H]3CC[C@@H](O)[C@H](OC)C3)[C@H](C)[C@@H](O)CC1=O)[C@H](C)C[C@@H]2OC` [Tacrolimus (FK-506), Tacrolimus] as the compound, how does the Emax [3] read?
Answer: 36%

Question: And the EC50 [4]?
Answer: 0.1 µM

Question: For `CO[C@@H]1[C@@H](OC(N)=O)[C@@H](O)[C@H](Oc2ccc3c(O)c(NC(=O)c4ccc(O)c(CC=C(C)C)c4)c(=O)oc3c2C)OC1(C)C` [Novobiocin], which Emax [3] is on record?
Answer: 27%

Question: What about the EC50 [4] of the same compound?
Answer: 3 µM

Question: Which Emax [3] does the source give for `C[N+](C)(C)CCOC(N)=O` [Carbachol] here?
Answer: 15%

Question: What about the EC50 [4] of the same compound?
Answer: 6.8 µM

Question: Which Emax [3] does the source give for `C[C@H]1O[C@@H](O[C@H]2[C@@H](O)C[C@H](O[C@H]3[C@@H](O)C[C@H](O[C@H]4CC[C@@]5(C)[C@H](CC[C@@H]6[C@@H]5CC[C@]5(C)[C@@H](C7=CC(=O)OC7)CC[C@]65O)C4)O[C@@H]3C)O[C@@H]2C)C[C@H](O)[C@@H]1O` [Digitoxin] here?
Answer: 11%

Question: What about the EC50 [4] of the same compound?
Answer: 3.5 µM

Question: `COc1ccc(CNC(=O)Nc2ncc([N+](=O)[O-])s2)cc1` [GSK-3β inhibitor VIII (AR-A014418), N-(4-Methoxybenzyl)-N′-(5-nitro-1,3-thiazol-2-yl)urea] was tested. Which Emax [3] did it give?
Answer: 43%

Question: What about the EC50 [4] of the same compound?
Answer: 3.6 µM

Question: For `COC(=O)CC[C@@H](C)[C@H]1CC[C@H]2[C@@H]3[C@H](OC(C)=O)C[C@@H]4C[C@H](OC(C)=O)CC[C@]4(C)[C@H]3CC[C@]12C` [Chenodeoxycholic acid diacetate methyl ester], which “Max Effect (% rescue)” value [1] is on record?
Answer: 24%

Question: What about the EC50 [2] of the same compound?
Answer: 2.1 µM

Question: What does the source list for `C[C@]12CC[C@H](O)CC1=CC[C@@H]1[C@@H]2CC[C@]2(C)C(=O)CC[C@@H]12` [Dehydroepiandrosterone]?
Answer: Emax [3]: 21%; EC50 [4]: 11 µM

Question: Which Emax [3] does the source give for `Cc1c(C)c2c(c(C)c1O)CCC(C)(COc1ccc(CC3SC(=O)NC3=O)cc1)O2` (stereo not shown) [Troglitazone] here?
Answer: 49%

Question: What about the EC50 [4] of the same compound?
Answer: 17.8 µM

Question: Which Emax [3] does the source give for `Cc1ccc(C(=O)Cn2c3c(sc2=N)CCCC3)cc1` [Pifithrin α, 2-(2-imino-4,5,6,7-tetrahydrobenzothiazol-3-yl)-1-p-tolylethanone hydrobromide] here?
Answer: 15%

Question: What about the EC50 [4] of the same compound?
Answer: 6 µM

Question: What does the source list for `CN1c2c(nc(N)[nH]c2=O)NCC1CNc1ccc(C(=O)N[C@@H](CCC(=O)O)C(=O)O)cc1` (stereo partly shown) [5-methyl-5-6-7-8-tetrahydropteroylglutamic-acid]?
Answer: Max Effect (% rescue) [1]: 34%; EC50 [2]: 9.3 µM

Question: For `NC(=O)c1ncn([C@@H]2O[C@H](CO)[C@@H](O)[C@H]2O)c1N` [Aicar], which “Max Effect (% rescue)” value [1] is on record?
Answer: 23%

Question: What about the EC50 [2] of the same compound?
Answer: 14.1 µM

Question: For `CC(=O)c1ccc(S(=O)(=O)NC(=O)NC2CCCCC2)cc1` [Acetohexamide], which Emax [3] is on record?
Answer: 18%

Question: And the EC50 [4]?
Answer: 3.9 µM
